In brackets after ≈: the same amount, converted by molar mass.
Tests used:
[1] = Cyclic voltammogram of the hydroquinone pentamer (redox potential); type: physicochemical; settings: glassy carbon working electrode, Ag/AgCl (3 M sodium chloride solution) reference, platinum wire counter electrode, sweep rate 25 mV/sec
From the text: A cyclic voltammogram of the hydroquinone pentamer thus obtained was obtained. The measurement was made using a 5-mm diameter glassy carbon as the working electrode, Ag/AgCl (3 M sodium chloride solution) as the reference electrode, and platinum wire as the counter electrode at a sweep rate of 25 mV/sec.

[2] = Solubility of the hydroquinone pentamer; type: physicochemical; settings: per hydroquinone unit

redox potential [1]: -0.75 V vs. SHE
solubility [2]: 1800 mM (≈ 1100 mg/mL)
Structure (SMILES): Oc1cc2c(O)cc1Cc1cc(O)c(cc1O)Cc1cc(O)c(cc1O)Cc1cc(O)c(cc1O)Cc1cc(O)c(cc1O)C2 [hydroquinone pentamer]
